Measurements taken from PMC12482042, “Targeting galectin-3 in cancer by novel and unique inhibitors of non-carbohydrate origin” (Molecular Medicine, 2025).
Where two headings read alike, the source gives them in different places.

Tests used:
galectin-3 [1] = target: T1, galectin-3 (Homo sapiens, UniProt P17931); assay: intrinsic tryptophan fluorescence spectroscopy titration; also competitive ELISA against asialo-fetuin (IC50 […]) and CD; assay type: binding
T1 construct: gene LGALS3; human recombinant galectin-3 expressed in E. coli

galectin-3 [2] = target: T1, galectin-3; assay: as above; assay type: binding; remark: listed apart in the source

T1 sequence (P17931 2-250): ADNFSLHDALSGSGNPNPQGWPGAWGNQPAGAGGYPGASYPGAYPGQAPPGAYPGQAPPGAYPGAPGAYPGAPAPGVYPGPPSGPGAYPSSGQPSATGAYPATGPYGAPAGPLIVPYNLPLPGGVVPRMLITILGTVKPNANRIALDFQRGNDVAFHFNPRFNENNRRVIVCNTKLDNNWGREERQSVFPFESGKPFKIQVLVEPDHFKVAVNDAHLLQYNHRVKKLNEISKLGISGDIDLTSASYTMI

| Kd (galectin-3 [1]) [µM] | Kd (galectin-3 [2]) [µM] | SMILES |
| --- | --- | --- |
| 18.1 ± 1.5 | – | C[C@H]1COc2c(N3CCN(C)CC3)c(F)cc3c(=O)c(C(=O)NNc4ccc(N)cc4)cn1c23 [K2] |
| – | 30.2 ± 1.4 | C[C@H]1COc2c(N3CCN(C)CC3)c(F)cc3c(=O)c(C(=O)NNc4cccc(N)c4)cn1c23 [L2] |
